This assay addresses T1, human AT1R (Homo sapiens, UniProt P30556).
T1 sequence (P30556 1-359): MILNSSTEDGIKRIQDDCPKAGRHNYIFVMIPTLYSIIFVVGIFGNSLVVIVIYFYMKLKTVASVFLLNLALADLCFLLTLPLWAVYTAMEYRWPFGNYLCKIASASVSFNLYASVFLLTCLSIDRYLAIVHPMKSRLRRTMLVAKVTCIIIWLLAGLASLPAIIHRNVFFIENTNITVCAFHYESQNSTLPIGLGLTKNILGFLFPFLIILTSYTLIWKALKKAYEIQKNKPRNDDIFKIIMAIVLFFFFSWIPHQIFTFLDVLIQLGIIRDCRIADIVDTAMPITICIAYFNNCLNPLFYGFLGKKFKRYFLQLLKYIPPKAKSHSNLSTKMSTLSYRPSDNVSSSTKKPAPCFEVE
The format is cell-based. The conditions noted are these: CellKey assay, Fig. 1C.

For the substance [Sar^1, Cys^5, Leu^8]‐AngII, the “potency at β‐arrestin stimulation relative to AngII and SII” value was “less potent than AngII but more potent than SII”.
